Data published in ChEMBL document CHEMBL1201862, “PubChem BioAssay data set” (2004).
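A five-concentration, 48-hour dose response in 96-well plates underlies each endpoint, interpolated linearly between surrounding concentrations. Abbreviation: GI50, concentration required for 50% inhibition of growth.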 Active and inactive are the calls of the source. Rule as the data show it: active = GI50 up to about 1.1 µM and inactive = higher.

Tests used:
Assay in all cases: NCI-60 cell line screen, 48 h
A549 = test system: A549
COLO 205 = test system: COLO 205
EKVX = test system: EKVX
HCT-116 = test system: HCT-116
HOP-92 = test system: HOP-92
HT-29 = test system: HT-29
IGROV-1 = test system: IGROV-1
K562 = test system: K562
OVCAR-8 = test system: OVCAR-8
SF-295 = test system: SF-295
SK-MEL-28 = test system: SK-MEL-28
SNB-19 = test system: SNB-19
SNB-75 = test system: SNB-75
T47D = test system: T47D
UO-31 = test system: UO-31
CCRF-CEM = test system: CCRF-CEM
NCI-H23 = test system: NCI-H23
SW-620 = test system: SW-620
SF-539 = test system: SF-539
HL-60 = test system: HL-60

SMILES	GI50 (A549)	GI50 (COLO 205)	GI50 (EKVX)	GI50 (HCT-116)	GI50 (HOP-92)	GI50 (HT-29)	GI50 (IGROV-1)	GI50 (K562)	GI50 (OVCAR-8)	GI50 (SF-295)	GI50 (SK-MEL-28)	GI50 (SNB-19)	GI50 (SNB-75)	GI50 (T47D)	GI50 (UO-31)	GI50 (CCRF-CEM)	GI50 (NCI-H23)	GI50 (SW-620)	GI50 (SF-539)	GI50 (HL-60)
NCCCN1CCN(c2ccccc2)CC1	> 100 µM (inactive)	78.7 µM (inactive)	> 100 µM (inactive)	> 100 µM (inactive)	86.3 µM (inactive)	95.1 µM (inactive)	> 100 µM (inactive)	> 100 µM (inactive)	> 100 µM (inactive)	10.2 µM (inactive)	> 100 µM (inactive)	> 100 µM (inactive)	> 100 µM (inactive)	> 100 µM (inactive)	> 100 µM (inactive)					
CCOC(=O)c1sc2nc(SC)nc3c2c1NCN3c1ccccc1Cl	38.7 µM (inactive)	> 100 µM (inactive)		31.8 µM (inactive)	25.3 µM (inactive)	72.1 µM (inactive)	63 µM (inactive)	> 100 µM (inactive)	31.7 µM (inactive)	52.6 µM (inactive)	55.2 µM (inactive)	48.3 µM (inactive)	24.8 µM (inactive)	23.7 µM (inactive)	70.5 µM (inactive)	> 100 µM (inactive)	42.2 µM (inactive)	80.2 µM (inactive)		
COc1ccc2c(c1)CC[C@@H]1[C@@H]2CC[C@]2(C)C(=O)/C(=C/c3ccc(C#N)cc3)C[C@@H]12	> 100 µM (inactive)	> 100 µM (inactive)	> 100 µM (inactive)	> 100 µM (inactive)			> 100 µM (inactive)	> 100 µM (inactive)	> 100 µM (inactive)	81.3 µM (inactive)	> 100 µM (inactive)	> 100 µM (inactive)	> 100 µM (inactive)	> 100 µM (inactive)	> 100 µM (inactive)	> 100 µM (inactive)	> 100 µM (inactive)	> 100 µM (inactive)	> 100 µM (inactive)	
C[C@@]12C=CC3C/C(=N\C(N)=S)C=C(CCCC4OCCO4)[C@]3(CC1)C2 (stereo partly specified)	21.1 µM (inactive)	13.2 µM (inactive)	10.3 µM (inactive)	13.7 µM (inactive)	34.4 µM (inactive)	11.2 µM (inactive)	14.8 µM (inactive)	17.9 µM (inactive)	21.8 µM (inactive)	23.1 µM (inactive)	18 µM (inactive)	34.5 µM (inactive)	28.6 µM (inactive)	22.1 µM (inactive)	17.6 µM (inactive)		21.3 µM (inactive)	20.8 µM (inactive)	17.9 µM (inactive)	
CC[n+]1[b-](C(C)(C)C)n(/N=C/C(C)(C)C)[b-](C(C)(C)C)[n+]1CC	> 100 µM (inactive)	> 100 µM (inactive)	> 100 µM (inactive)	> 100 µM (inactive)		> 100 µM (inactive)	> 100 µM (inactive)	67.1 µM (inactive)	> 100 µM (inactive)	> 100 µM (inactive)	> 100 µM (inactive)	> 100 µM (inactive)	> 100 µM (inactive)	> 100 µM (inactive)	> 100 µM (inactive)	66.1 µM (inactive)	> 100 µM (inactive)	> 100 µM (inactive)	> 100 µM (inactive)	
CC(C)CCC[C@@H](C)[C@H]1CC[C@H]2[C@@H]3CC=C4C[C@@H](OC(=O)c5cccc6c(=O)c7ccccc7[nH]c56)CC[C@]4(C)[C@H]3CC[C@]12C	> 75 µM (inactive)	> 75 µM (inactive)	> 75 µM (inactive)		> 75 µM (inactive)	> 75 µM (inactive)	> 75 µM (inactive)	43.7 µM (inactive)	> 75 µM (inactive)	> 75 µM (inactive)	> 75 µM (inactive)	> 75 µM (inactive)	> 75 µM (inactive)	> 75 µM (inactive)	> 75 µM (inactive)		> 75 µM (inactive)	> 75 µM (inactive)	> 75 µM (inactive)	
Nc1nc(N)c2nc(CNc3ccc(C(=O)NC(CCCCNC(=O)c4ccccc4C(=O)O)C(=O)O)cc3)cnc2n1 (stereo unspecified)	0.01 µM (active)	0.01 µM (active)	> 34.4 µM (inactive)	0.01 µM (active)	0.445 µM (active)	0.01 µM (active)	< 0.0113 µM (active)	0.01 µM (active)	0.01 µM (active)	< 0.0332 µM (active)	< 0.0275 µM (active)	< 0.0158 µM (active)		0.01 µM (active)	0.00776 µM (active)	0.01 µM (active)	0.0143 µM (active)	0.01 µM (active)	< 0.0133 µM (active)	
COc1ccc2[nH]c3c4c(cc(-c5ccccc5)c3c2c1)C(=O)N(c1ccccc1)C4=O	13.8 µM (inactive)	17.7 µM (inactive)	38.6 µM (inactive)	29.2 µM (inactive)	17.6 µM (inactive)	22.7 µM (inactive)	41.5 µM (inactive)	22.1 µM (inactive)	6.05 µM (inactive)	4.84 µM (inactive)	37.9 µM (inactive)	23.6 µM (inactive)	6.3 µM (inactive)		28.5 µM (inactive)	4.97 µM (inactive)	31.9 µM (inactive)	11.4 µM (inactive)	2 µM (inactive)	38.5 µM (inactive)
CC(=O)N1CC(=O)NC1=S	> 100 µM (inactive)	> 100 µM (inactive)	> 100 µM (inactive)	> 100 µM (inactive)	> 100 µM (inactive)	> 100 µM (inactive)	> 100 µM (inactive)	> 100 µM (inactive)	> 100 µM (inactive)	> 100 µM (inactive)	> 100 µM (inactive)	> 100 µM (inactive)	69.3 µM (inactive)		> 100 µM (inactive)	> 100 µM (inactive)	> 100 µM (inactive)	> 100 µM (inactive)	> 100 µM (inactive)	> 100 µM (inactive)
Cc1ccc(C)c(NC(=O)CCc2n[nH]c(=S)o2)c1	> 100 µM (inactive)	> 100 µM (inactive)	> 100 µM (inactive)	> 100 µM (inactive)	> 100 µM (inactive)	> 100 µM (inactive)	> 100 µM (inactive)	> 100 µM (inactive)	> 100 µM (inactive)	> 100 µM (inactive)	> 100 µM (inactive)	> 100 µM (inactive)	> 100 µM (inactive)		> 100 µM (inactive)	> 100 µM (inactive)	> 100 µM (inactive)	> 100 µM (inactive)	> 100 µM (inactive)	> 100 µM (inactive)
O=C(O)C1=NN=C(C(=O)O)NN1	> 100 µM (inactive)	> 100 µM (inactive)	> 100 µM (inactive)	> 100 µM (inactive)	> 100 µM (inactive)	> 100 µM (inactive)	> 100 µM (inactive)	72.9 µM (inactive)	> 100 µM (inactive)	> 100 µM (inactive)	> 100 µM (inactive)	> 100 µM (inactive)	> 100 µM (inactive)		> 100 µM (inactive)	> 100 µM (inactive)	> 100 µM (inactive)	38.6 µM (inactive)	> 100 µM (inactive)	> 100 µM (inactive)
